We go through eight compounds from US12398106B2, “Catecholamine carbamate prodrugs for use in the treatment of parkinson's disease” (H. Lundbeck A/S, priority 2019, dated 2025).

Data set [1] can be described thus: Conversion of compounds in human plasma (incubation, LC-MS/MS). It counts as in vitro ADME. The conditions noted are these: for Observed metabolite, incubation in human plasma: 1 μM test compound, 37° C., 0 to 6 hours. How it is done:
Frozen human plasma was thawed and then centrifuged at 3200×g for 5 minutes to remove debris. The pH value of the supernatant was then measured and adjusted to 7.4±0.1 by adding 1% phosphoric acid or 1 N sodium hydroxide. 2 μL of dosing solution (50 μM for test compounds and 100 μM for positive control (propantheline bromide)) was mixed with 98 μL of blank plasma to achieve 1 μM test compound and 2 μM positive control of final concentration. The mixture was incubated, and samples were withdrawn from the incubations at the pre-determined time points of 0, 0.5, 1, 2, 4 and 6 hours (in duplicate) at 37° C. in water bath. At each corresponding time point 10 μL inhibitor and 20 μL ascorbic acid and 2 μL formic acid (20%) are added, and then added 400 μL of “stop solution” (200 ng/mL tolbutamide plus 200 ng/mL labetalol in 50% ACN/MeOH) to precipitate protein. The substance was mixed thoroughly and thereafter Centrifugated at 4,000 rpm for 20 minutes. Then an aliquot of supernatant (50 μL) was transferred from each well to a sample plate and mixed with 100 μL ultrapure water. The plate was shaked at 800 rpm for about 10 minutes before submitting to LC-MS/MS analysis.
Mass spectrometer (LC-MS/MS) Shimadzu LC 20-AD Shimadzu UHPLC API 4000. Analytical column ACQUITY UPLC® BEH Phenyl 1.7 μm 2.1×50 mm. Mobile phase A: 0.1% Formic Acid in Water. Mobile phase B: 0.1% Formic Acid in Acetonitrile. […] Flow rate 0.7 mL/min.

In data set [2] the target is T1, human 5-HT2B receptor (Homo sapiens, UniProt P41595).
T1 construct: host or cells: CHO cells
T1 sequence (P41595 whole entry): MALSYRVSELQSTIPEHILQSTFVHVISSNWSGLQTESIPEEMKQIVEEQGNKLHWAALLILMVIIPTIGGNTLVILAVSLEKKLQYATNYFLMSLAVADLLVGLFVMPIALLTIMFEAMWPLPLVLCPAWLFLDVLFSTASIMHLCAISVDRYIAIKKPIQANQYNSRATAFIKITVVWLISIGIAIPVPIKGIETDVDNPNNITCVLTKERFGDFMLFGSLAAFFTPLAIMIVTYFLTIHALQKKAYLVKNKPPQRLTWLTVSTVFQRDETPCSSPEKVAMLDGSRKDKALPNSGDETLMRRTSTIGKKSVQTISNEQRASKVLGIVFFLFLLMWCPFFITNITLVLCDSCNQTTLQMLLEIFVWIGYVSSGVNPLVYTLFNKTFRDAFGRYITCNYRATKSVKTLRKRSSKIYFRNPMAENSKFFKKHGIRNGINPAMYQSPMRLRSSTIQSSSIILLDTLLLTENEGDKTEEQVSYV
The data set can be described thus: 5-HT2B radioligand binding assay ([125I](±)DOI, CHO cell membranes). To be noted: read-out: 5-HT2B % at single concentration (binding affinity, % inhibition of control specific binding per footnote). The method, then: Evaluation of the affinity of compounds for the human 5-HT2B receptor was determined in a radioligand binding assay at Eurofins/Cerep (France). Membrane homogenates prepared from CHO cells expressing the human 5HT2B receptor were incubated for 60 minutes at room temperature with 0.2 nM [125I](±)DOI (1-(4-iodo-2, 5-dimethoxyphenyl)propan-2-amine) in the absence or presence of the test compound in a buffer containing 50 mM Tris-HCl (pH 7.4), 5 mM MgCl2, 10 μM pargyline and 0.1% ascorbic acid. Nonspecific binding is determined in the presence of 1 μM (±)DOI. Following incubation, the samples were filtered rapidly under vacuum through glass fiber filters (GF/B, Packard) presoaked with 0.3% polyethyleneimine (PEI) and rinsed several times with ice-cold 50 mM Tris-HCl using a 96-sample cell harvester (Unifilter, Packard). The filters were dried and counted for radioactivity in a scintillation counter (Topcount, Packard) using a scintillation cocktail (Microscint 0, Packard). The results are expressed as a percent inhibition of the control radioligand specific binding. The standard reference compound was (±)DOI, which was tested in each experiment at several concentrations to obtain a competition curve from which its IC50 is calculated.

A short description of data set [3]: PK experiments in rats: plasma compound (I) after oral dosing of prodrug. To be noted: for Observed metabolite, in vivo PK study after oral dosing (rats): plasma; for Plasma concentrations / exposure of compound (I) after oral dosing of prodrug (in words): Wistar rats, doses equal to 287 μg/kg of compound (I).
Procedure: For all the experiments, blood samples of approximately 0.68 mL were drawn from the tail or sublingual vein and put into K3EDTA tubes that had been pre-cooled and prepared with stabilizing solution consisting of 80 μL ascorbic acid and 40 μL 100 mM D-saccharic acid 1,4 lactone in water. The tubes were inverted gently 6-8 times to ensure thorough mixing and then placed in wet ice. The collecting tube was placed in wet ice for up to 30 minutes until centrifugation. Once removed from the wet ice the centrifugation was initiated immediately. Immediately after end of centrifugation the samples were returned to wet ice. Three sub-samples of 130 μL plasma were transferred to each of three appropriately labelled cryo tubes containing 6.5 μL pre-cooled formic acid (20%) (the tubes were pre-spiked and stored refrigerated prior to use). The tube lid was immediately replaced, and the plasma solution was thoroughly mixed by inverting gently 6-8 times. The samples were stored frozen at nominally −70° C. within 60 minutes after sampling. Centrifugation conditions at 3000 G for 10 minutes at 4° C. Plasma was placed on water-ice following collection. Final storage at approximately −70° C.
Plasma samples were analyzed by solid phase extraction or direct protein precipitation followed by UPLC-MS/MS. MS detection using electrospray in the positive ion mode with monitoring of specific mass-to-charge transitions for compound (I) using internal standards for correcting the response. The concentration-time data was analyzed, using standard software using appropriate noncompartmental techniques to obtain estimates of the derived PK parameters.
Mass spectrometer (LC-MS/MS) Waters Acquity-Sciex API 5000. Analytical column Waters BEH UPLC Phenyl 100×2.1 mm column, 1.7 μm particle size. Mobile phase A: 20 mM ammonium formate (aq)+0.5% formic acid. Mobile phase B: Acetonitrile. Gradient run from 95/5% to 2/98 in 6.1 minutes. Flow rate 0.5 mL/min. MRM monitoring (multiple reaction monitoring) of test item and the added analytical standards
Han Wistar rats were supplied by Charles River Laboratories, Sulzfeld, Germany. An artificial, automatically controlled, light and dark cycle of 12 hours was maintained. The rats received a standard laboratory diet from Brogaarden (Altromin 1324 pellets). The rats had unrestricted access to the diet.
Mass spectrometer (LC-MS/MS) Waters Acquity-Sciex API 5000. Analytical column Waters BEH UPLC Phenyl 100×2.1 mm column, 1.7 μm particle size. Mobile phase A: 20 mM ammonium formate (aq)+0.5% formic acid. Mobile phase B: Acetonitrile. Gradient run from 95/5% to 2/98 in 6.1 minutes. Flow rate 0.5 mL/min. MRM monitoring of test item and the added analytical standards.
Han Wistar rats were supplied by Charles River Laboratories, UK. An artificial, automatically controlled, light and dark cycle of 12 hours was maintained. The rats received a standard laboratory diet (Teklad 2014C Diet.). The rats had unrestricted access to the diet.
Mass spectrometer (LC-MS/MS) Waters Acquity—Waters Xevo TQ-S. Analytical column Acquity BEH C18 100×2.1 mm, 1.7 μm. Mobile phase A: 20 mM NH4—Formate+0.2% formic acid. Mobile phase B: Acetonitrile+0.2% formic acid. Gradient run from 95/5% to 5/95% in 11.0 minutes. Flow rate 0.3 mL/min. MRM monitoring of test item and the added analytical standards.
Han Wistar rats were supplied by Envigo, UK.
Data set [4] concerns the target T1, human 5-HT2B receptor. In words: 5-HT2B agonist activity assay (IP1 production, HTRF, transfected CHO cells). Type of data set: cell-based. The method, then:
Evaluation of the agonist activity of compounds (I), (Ia) and (Ib) at the human 5-HT2B receptor was performed by Eurofins/Cerep (France) measuring the compound effects on inositol monophosphate (IP1) production using the HTRF detection method. Briefly, the human 5-HT2B receptor was expressed in transfected CHO cells. The cells were suspended in a buffer containing 10 mM Hepes/NaOH (pH 7.4), 4.2 mM KCl, 146 mM NaCl, 1 mM CaCl2, 0.5 mM MgCl2, 5.5 mM glucose and 50 mM LiCl, then distributed in microplates at a density of 4100 cells/well and incubated for 30 min at 37° C. in the presence of buffer (basal control), test compound or reference agonist. For stimulated control measurement, separate assay wells contained 1 μM 5-HT. Following incubation, the cells were lysed and the fluorescence acceptor (fluorophen D2-labeled IP1) and fluorescence donor (anti-IP1 antibody labeled with europium cryptate) were added. After 60 minutes at room temperature, the fluorescence transfer was measured at lambda(Ex) 337 nm and lambda (Em) 620 and 665 nm using a microplate reader (Rubystar, BMG). The IP1 concentration was determined by dividing the signal measured at 665 nm by that measured at 620 nm (ratio). The results were expressed as a percent of the control response to 1 μM 5-HT. […]

For data set [5] the following is noted: man, after oral dosing; cited from earlier work.

Turning to `CCCN1CCC[C@@H]2Cc3c(ccc(OC(=O)N(C)C)c3OC(=O)N(C)C)C[C@H]21` [Compound (3), (4aR,10aR)-1-propyl-1,2,3,4,4a,5,10,10a-octahydrobenzo[g]quinoline-6,7-diyl bis(dimethylcarbamate)], the “Observed metabolite, incubation in human plasma” value in data set [1] is given as “Compound (I)”. Moreover, the inhibition at 10 µM at human 5-HT2B receptor [2] was found to be 4%. Besides, the “Observed metabolite, in vivo PK study after oral dosing (rats)” value (“Observed metabolite, in vivo PK study” below) in data set [3] is “Compound (I)”.
As for `CCCN1CCC[C@@H]2CC3=C(CCCC3=O)C[C@H]21` [Compound (Ia), reference compound], the “5-HT2B agonist effect at single concentration” value on human 5-HT2B receptor [4] (@30 μM, percent of the control response to 1 μM 5-HT) is reported as 58%. Further, in data set [3], the “Plasma concentrations / exposure of compound (I) after oral dosing of prodrug (in words)” value (shortened to “Plasma concentrations / exposure”) was “early and high peak concentrations of compound (I)”.
For the compound `CCCN1CCC[C@@H]2Cc3c(ccc(O)c3O)C[C@H]21` [Compound (I), (4aR,10aR)-1-Propyl-1,2,3,4,4a,5,10,10a-octahydro-benzo[g]quinoline-6,7-diol, reference compound], the “Half-life in the plasma assay (in words)” value in data set [1] (human plasma incubation) is recorded as “short half-life”.
Regarding `CCCN1CCC[C@@H]2Cc3c(ccc4c3OCO4)C[C@H]21` [Compound (Ib), (6aR,10aR)-7-propyl-6,6a,7,8,9,10,10a,11-octahydro-[1,3]dioxolo[4′,5′:5,6]benzo[1,2-g]quinoline, reference compound], the “5-HT2B receptor agonism (in words)” value on human 5-HT2B receptor [4] (c.f. example 2 and Table 3) is “agonist of the 5-HT2B receptor”. Further, the “Plasma concentrations / exposure” value in data set [3] is “early and high peak concentrations of compound (I)”.
Consider `CCCN1CCC[C@@H]2Cc3c(ccc(OC(=O)C(C)(C)C)c3OC(=O)C(C)(C)C)C[C@H]21` [(Ic), reference compound], for which the “Plasma concentrations / exposure” value in data set [3] was “extremely low”.
On to `CCCN1CCC[C@@H]2Cc3c(ccc(OC(=O)NC)c3OC(=O)NC)C[C@H]21` [Compound (1), (4aR,10aR)-1-propyl-1,2,3,4,4a,5,10,10a-octahydrobenzo[g]quinoline-6,7-diyl bis(methylcarbamate)], for which the inhibition at 10 µM on human 5-HT2B receptor [2] stood at 3%. Moreover, in data set [3], the “Observed metabolite, in vivo PK study” value is recorded as “Compound (I)”.
As for `CCCc1cc2c(s1)CN[C@@H]1CCc3cc(OC(C)=O)c(OC(C)=O)cc3[C@@H]21` [Adrogolide], the Oral bioavailability in data set [5] is reported as about 4%.
For the compound `CCCN1CCC[C@@H]2Cc3c(ccc(OC(=O)NCC)c3OC(=O)NCC)C[C@H]21` [Compound (2), (4aR,10aR)-1-propyl-1,2,3,4,4a,5,10,10a-octahydrobenzo[g]quinoline-6,7-diyl bis(ethylcarbamate)], the “Observed metabolite, incubation in human plasma” value in data set [1] is “Compound (I)”. Further, the inhibition at 10 µM on human 5-HT2B receptor [2] was determined as 3%. Further, the “Observed metabolite, in vivo PK study” value in data set [3] is “Compound (I)”.
